Experiments:
[1] = target: Apoptosis regulator Bcl-2 (Homo sapiens, UniProt P10415); experiment: Time Resolved-Fluorescence Resonance Energy Transfer (TR-FRET) Assay
Procedure: (§1) [Bcl-2 protein or Bcl-xL protein], [Probe], [Antibody],Protein Probe nM nM Antibody nMGST- F-Bak 1 100 Tb-anti- 1Bcl- Acetyl-(SEQ GST 2 ID NO: 3)-NH2The samples were then mixed on a shaker for 1 minute and equilibrated for an additional 3 hours at room temperature. For each assay plate, a probe/antibody and protein/antibody/probe mixture were included as a negative and a positive control, respectively. Fluorescence was measured on the Envision (Perkin Elmer) using a 340/35 nm excitation filter and 520/525 (F-Bak) and 495/510 nm (Tb-labeled anti-GST antibody) emission filters. Inhibition constants (Ki) were determined using Wang's equation (Wang FEBS Lett. 1995, 360, 111-114). The TR-FRET assay can be performed in the presence of varying concentrations of human serum (HS) to determine apparent half maximal inhibitory concentration (IC50) after HS protein binding.

Bcl-2-like protein 1 = Bcl-2-like protein 1 (Homo sapiens, UniProt Q07817); experiment: as above
Procedure: as §1

Chain of Apoptosis regulator Bcl-2 (P10415 whole entry): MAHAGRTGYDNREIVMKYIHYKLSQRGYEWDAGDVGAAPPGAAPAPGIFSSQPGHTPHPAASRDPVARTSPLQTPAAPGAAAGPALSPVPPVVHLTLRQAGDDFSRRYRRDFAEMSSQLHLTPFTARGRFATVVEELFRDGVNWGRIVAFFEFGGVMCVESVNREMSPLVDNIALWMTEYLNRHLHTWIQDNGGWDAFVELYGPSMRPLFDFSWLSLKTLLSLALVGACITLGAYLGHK
Chain of Bcl-2-like protein 1 (Q07817 whole entry): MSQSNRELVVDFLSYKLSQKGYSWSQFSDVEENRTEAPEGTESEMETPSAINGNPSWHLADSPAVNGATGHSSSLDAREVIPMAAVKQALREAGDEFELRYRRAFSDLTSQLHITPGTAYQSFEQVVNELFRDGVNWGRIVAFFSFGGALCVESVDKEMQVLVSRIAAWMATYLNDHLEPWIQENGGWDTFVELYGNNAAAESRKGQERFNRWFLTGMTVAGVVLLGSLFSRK

C[C@@H]1CC[C@H](CNc2ccc(S(=O)(=O)NC(=O)c3ccc(N4CCN5CC6=C(c7ccc(Cl)cc7)CC(C)(C)C[C@H]6OCCCOC[C@@H]5C4)cc3N3CCCOc4nc5[nH]ccc5cc43)cc2[N+](=O)[O-])OC1 [US11964990, Example 21]
Ki [1]: 0.521 nM
Ki (Bcl-2-like protein 1): 58.9 nM

Source: BindingDB's records for patent US11964990 (Abbvie, 2024)
